Molecular target: T1, Cys12 of the KRAS 4B G12C protein (Homo sapiens, UniProt P01116, G12C)
T1 construct: This protein contained 188 amino acids in total, including an N-terminal 6-Histidine tag; made in house; host or cells: E. coli BL21
Assay: In vitro covalent adduct formation (CAF) assay, LC-MS intact mass
Format: binding
Conditions: 10 uM compound, 60 min
In short: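 GDP-loaded (>95%) His-TEV-tagged KRAS 4B G12C (residues 1–169), 5 μM in TBS pH 7.4, incubated with 10 μM compound (4% DMSO) at 22° C for one hour. Intact-protein LC-MS gave free:adduct ratios, reported as percent protein modified; duplicate runs.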

% CAF 10 uM @ 60 min [%]	Compound
29.7	C=CC(=O)N1C[C@H](C)N(c2nc(=O)n3c4c(c(-c5cc(Cl)c(F)cc5F)c(C(F)(F)F)cc24)SC[C@@H]3CN2C[C@@H]3C[C@H]2CO3)C[C@H]1C (atropisomer, axis not shown) [Example 1335, (3S,10S)-3-(((1S,4S)-2-oxa-5-azabicyclo[2.2.1]heptan-5-yl)methyl)-7-((2S,5R)-4-acryloyl-2,5-dimethylpiperazin-1-yl)-10-(5-chloro-2,4-difluorophenyl)-9-(trifluoromethyl)-2,3-dihydro-5H-[1,4]thiazino[2,3,4-ij]quinazolin-5-one]
96.4	C=CC(=O)N1[C@H](C)CN(c2nc(=O)n3c4c(c(-c5ccc(F)cc5F)c(C(F)(F)F)cc24)SC[C@@H]3CN2C[C@@H]3C[C@H]2CO3)C[C@@H]1C (atropisomer, axis not shown) [Example 1301, (3S)-3-((1S,4S)-2-oxa-5-azabicyclo[2.2.1]heptan-5-ylmethyl)-7-((3S,5R)-4-acryloyl-3,5-dimethylpiperazin-1-yl)-10-(2,4-difluorophenyl)-9-(trifluoromethyl)-2H-[1,4]thiazino[2,3,4-ij]quinazolin-5(3H)-one]

Same assay, conditions: 10 uM compound, 60 min incubation

% CAF 10 uM @ 60 min [%]	Compound
71.7	C=CC(=O)N1[C@H](C)CN(c2nc(=O)n3c4c(c(-c5cc(Cl)c(F)cc5F)c(C(F)(F)F)cc24)SC[C@H](N2CCOCC2)C3)C[C@@H]1C (atropisomer, axis not shown) [Example 1114, (3R,11R)-8-((3S,5R)-4-acryloyl-3,5-dimethylpiperazin-1-yl)-11-(5-chloro-2,4-difluorophenyl)-3-morpholino-10-(trifluoromethyl)-3,4-dihydro-2H,6H-[1,4]thiazepino [2,3,4-ij]quinazolin-6-one]
95.3	C=CC(=O)N1CCN(c2nc(=O)n3c4c(c(-c5ccc(F)cc5F)c(C(F)(F)F)cc24)SCC2(COC2)C3)CC1 (atropisomer, axis not shown) [Example 1127, (R)-8′-(4-acryloylpiperazin-1-yl)-11′-(2,4-difluorophenyl)-10′-(trifluoromethyl)-2′H,4′H,6′H-spiro[oxetane-3,3′-[1,4]thiazepino [2,3,4-ij]quinazolin]-6′-one]
76.8	C=CC(=O)N1[C@H](C)CN(c2nc(=O)n3c4c(c(-c5ccc(F)cc5)c(C(F)(F)F)cc24)SC[C@@H](N2CCOCC2)C3)C[C@@H]1C [Example 1134, (S)-8-((3S,5R)-4-acryloyl-3,5-dimethylpiperazin-1-yl)-11-(4-fluorophenyl)-3-morpholino-10-(trifluoromethyl)-3,4-dihydro-[1,4]thiazepino [2,3,4-ij]quinazolin-6(2H)-one]
18.2	C=CC(=O)N1[C@H](C)CN(c2nc(=O)n3c4c(c(-c5cccc6cnn(C)c56)c(C(F)(F)F)cc24)SC[C@@H]3COC)C[C@@H]1C (atropisomer, axis not shown) [Example 1131, (3S,10R)-7-((3S,5R)-4-acryloyl-3,5-dimethylpiperazin-1-yl)-3-(methoxymethyl)-10-(1-methyl-1H-indazol-7-yl)-9-(trifluoromethyl)-2,3-dihydro-5H-[1,4]thiazino [2,3,4-ij]quinazolin-5-one]

Same assay, conditions: 10 μM compound, after 1 hour

CAF (% after 1 hour) [%]	Compound
93	C=CC(=O)N1[C@H](C)CN(c2nc(=O)n3c4c(c(-c5ccc(F)cc5F)c(C(F)(F)F)cc24)SCCC3)C[C@@H]1C [Example 1227, 8-((3S,5R)-4-acryloyl-3,5-dimethylpiperazin-1-yl)-11-(2,4-difluorophenyl)-10-(trifluoromethyl)-3,4-dihydro-2H,6H-[1,4]thiazepino[2,3,4-ij]quinazolin-6-one]

System: not listed separately
Assay: Determination of total drug concentration in rat brain (BBB penetration)
Format: in vivo
Conditions: male SD rat, 2 mg/kg IV infusion for 4 hours, brain collected at end of 4 hours
Experimental: BB. Example 9: Determination of Total Drug Concentration in Rat Brain
In Vivo Experimental Procedures
Infuse male SD rat at 2 mg/kg dose for 4 hours through IV administration route. Collect brain tissues at the end of 4 hours.
Sample Preparation Procedures
Dilute brain tissue by adding homogenization solvent (1:4, w/v). Homogenize diluted brain tissue samples. Extract analyte by adding organic solvent (1:4, v/v) with spiked internal standard. Vortex and centrifuge the samples. Remove supernatant and dilute with HPLC compatible solvent (1:3, v/v).
Inject diluted extract into LC-MS/MS system using reversed phase high performance liquid chromatography coupled with electrospray ionization and selected reaction monitoring. Determine the total drug concentration in brain samples by quantitating against the standard curve prepared using the same matrix.
The following data provides blood brain barrier (BBB) penetration activity for a selection of inventive compounds where were directly compared to sotorasib and adagrasib (concentration in brain measured in ng/g).
Compounds that were measured as having a total concentration in the brain of at least 60 ng/g are indicated as “+”.

Compound	BBB activity
C=CC(=O)N1[C@H](C)CN(c2nc(=O)n3c4c(c(-c5ccc(F)cc5F)c(C(F)(F)F)cc24)SC[C@@H](OCC)C3)C[C@@H]1C (atropisomer, axis not shown) [Example 13-52]	− (Compounds that did not meet this threshold are indicated as “−”)
C=CC(=O)N1[C@H](C)CN(c2nc(=O)n3c4c(c(-c5cc(Cl)c(F)cc5F)c(C(F)(F)F)cc24)SC[C@@H](N2CCOCC2)C3)C[C@@H]1C [Example 13-84]	− (Compounds that did not meet this threshold are indicated as “−”)
C=CC(=O)N1[C@H](C)CN(c2nc(=O)n3c4c(c(-c5cc(Cl)c(F)cc5F)c(C(F)(F)F)cc24)SC[C@@H]3CC2CCN(CC)CC2)C[C@@H]1C [Example 13-86]	− (Compounds that did not meet this threshold are indicated as “−”)
C=CC(=O)N1[C@H](C)CN(c2nc(=O)n3c4c(c(-c5cc(Br)c(F)cc5F)c(C(F)(F)F)cc24)SCC2(COC2)C3)C[C@@H]1C [Example 13-36]	+ (Compounds that were measured as having a total concentration in the brain of at least 60 ng/g are indicated as “+”)
C=CC(=O)N1C[C@H](C)N(c2nc(=O)n3c4c(c(-c5ccc(F)cc5F)c(C(F)(F)F)cc24)SCC2(COC2)C3)C[C@H]1C [Example 13-51]	− (Compounds that did not meet this threshold are indicated as “−”)
C=CC(=O)N1[C@H](C)CN(c2nc(=O)n3c4c(c(-c5cc(Cl)c(F)cc5F)c(C(F)(F)F)cc24)CC[C@@H]3CC2CCC3(CC2)COC3)C[C@@H]1C [Example 13-63]	− (Compounds that did not meet this threshold are indicated as “−”)
C=CC(=O)N1C[C@H](C)N(c2nc(=O)n3c4c(c(-c5ccc(F)cc5F)c(Cl)cc24)SCC3)C[C@H]1C [Example 13-18]	+ (Compounds that were measured as having a total concentration in the brain of at least 60 ng/g are indicated as “+”)
C=CC(=O)N1[C@H](C)CN(c2nc(=O)n3c4c(c(-c5cc(Cl)c(F)cc5F)c(C(F)(F)F)cc24)SC[C@@H](Nc2ncccn2)C3)C[C@@H]1C [Example 13-90]	− (Compounds that did not meet this threshold are indicated as “−”)
C=CC(=O)N1[C@H](C)CN(c2nc(=O)n3c4c(c(-c5ccc(F)c6sccc56)c(C(F)(F)F)cc24)SC[C@@H]3COC)C[C@@H]1C [Example 13-68]	− (Compounds that did not meet this threshold are indicated as “−”)
C=CC(=O)N1C[C@H](C)N(c2nc(=O)n3c4c(c(-c5cc(Cl)c(F)cc5F)c(C(F)(F)F)cc24)CC[C@@H]3CN2CCC3(CC2)COC3)C[C@H]1C [Example 13-74]	− (Compounds that did not meet this threshold are indicated as “−”)
C=CC(=O)N1[C@H](C)CN(c2nc(=O)n3c4c(c(-c5cc(Cl)c(F)cc5F)c(C(F)(F)F)cc24)SC[C@@H]3COCOC)C[C@@H]1C (atropisomer, axis not shown) [Example 13-62]	− (Compounds that did not meet this threshold are indicated as “−”)
C=CC(=O)N1[C@H](C)CN(c2nc(=O)n3c4c(c(-c5ccc(F)cc5F)c(C(F)(F)F)cc24)SC[C@@H]3CN2CCN(C3CC3)CC2)C[C@@H]1C [Example 13-26]	+ (Compounds that were measured as having a total concentration in the brain of at least 60 ng/g are indicated as “+”)
C=CC(=O)N1[C@H](C)CN(c2nc(=O)n3c4c(c(-c5ccccc5)c(C(F)(F)F)cc24)SC[C@@H]3COC)C[C@@H]1C [Example 13-20]	+ (Compounds that were measured as having a total concentration in the brain of at least 60 ng/g are indicated as “+”)
C=CC(=O)N1CCN(c2nc(=O)n(-c3c(C)ccnc3C(C)C)c3nc(-c4c(O)cccc4F)c(F)cc23)[C@@H](C)C1 [Example 13-92]	− (Compounds that did not meet this threshold are indicated as “−”)
C=CC(=O)N1[C@H](C)CN(c2nc(=O)n3c4c(c(-c5ccc(F)cc5)c(C(F)(F)F)cc24)SC[C@@H](OC)C3)C[C@@H]1C [Example 13-40]	+ (Compounds that were measured as having a total concentration in the brain of at least 60 ng/g are indicated as “+”)
C=CC(=O)N1[C@H](C)CN(c2nc(=O)n3c4c(c(-c5ccc(F)cc5)c(C(F)(F)F)cc24)SCC(COC)(COC)C3)C[C@@H]1C [Example 13-89]	− (Compounds that did not meet this threshold are indicated as “−”)
C=CC(=O)N1[C@H](C)CN(c2nc(=O)n3c4c(c(-c5cc(Cl)c(F)cc5F)c(C(F)(F)F)cc24)SC[C@@H]3COC)C[C@@H]1C (atropisomer, axis not shown) [Example 13-2]	+ (Compounds that were measured as having a total concentration in the brain of at least 60 ng/g are indicated as “+”)
C=CC(=O)N1[C@H](C)CN(c2nc(=O)n3c4c(c(-c5cc(I)c(F)cc5F)c(C(F)(F)F)cc24)SC[C@@H]3COC)C[C@@H]1C (atropisomer, axis not shown) [Example 13-12]	+ (Compounds that were measured as having a total concentration in the brain of at least 60 ng/g are indicated as “+”)
[2H]C1([2H])N(C(=O)C=C)C([2H])([2H])C([2H])([2H])N(c2nc(=O)n3c4c(c(-c5cc(Cl)c(F)cc5F)c(C(F)(F)F)cc24)SCC2(COC2)C3)C1([2H])[2H] [Example 13-54]	− (Compounds that did not meet this threshold are indicated as “−”)
C=CC(=O)N1CCN(c2nc(=O)n3c4c(c(-c5ccc(F)cc5F)c(C(F)(F)F)cc24)SC[C@@H]3COC)CC1 (atropisomer, axis not shown) [Example 13-17]	+ (Compounds that were measured as having a total concentration in the brain of at least 60 ng/g are indicated as “+”)

— patent publication US20230107642A1 (Erasca, Inc., priority 2020, published 2023)
